Measurements from ChEMBL document CHEMBL1143087, “Indirect oxidation of the antitumor agent procarbazine by tyrosinase--possible application in designing anti-melanoma prodrugs” (Bioorg Med Chem Lett, 2008).
Active and inactive are the calls of the source. The calls are words filed in the database; no cut-off is given here.

Target: T1, Tyrosinase (Agaricus bisporus) (UniProt O42713)
T1 sequence (whole entry): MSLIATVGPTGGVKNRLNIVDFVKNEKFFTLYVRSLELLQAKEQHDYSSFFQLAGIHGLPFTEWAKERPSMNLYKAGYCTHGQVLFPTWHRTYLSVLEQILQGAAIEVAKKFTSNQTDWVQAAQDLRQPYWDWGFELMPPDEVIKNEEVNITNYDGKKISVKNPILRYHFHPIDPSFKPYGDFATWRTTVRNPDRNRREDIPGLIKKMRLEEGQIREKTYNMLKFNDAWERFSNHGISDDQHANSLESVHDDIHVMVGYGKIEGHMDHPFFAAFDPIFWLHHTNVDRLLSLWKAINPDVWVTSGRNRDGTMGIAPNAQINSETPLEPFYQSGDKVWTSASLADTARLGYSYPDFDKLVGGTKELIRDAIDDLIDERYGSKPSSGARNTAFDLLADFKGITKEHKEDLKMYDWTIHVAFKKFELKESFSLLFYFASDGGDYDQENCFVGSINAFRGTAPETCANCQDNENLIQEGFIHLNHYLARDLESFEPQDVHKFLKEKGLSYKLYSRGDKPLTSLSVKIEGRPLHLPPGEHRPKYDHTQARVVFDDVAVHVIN
Assay: Increase in mushroom tyrosinase catalysed oxidation of 4-tert-butyl catechol assessed as oxygen consumption after 30 mins

`CNNCc1ccc(C(=O)NC(C)C)cc1` was tested, and the Activity was “Active”.
